From US20240010684A1, “MASP INHIBITORY COMPOUNDS AND USES THEREOF” (BAYER AKTIENGESELLSCHAFT, priority 2020, published 2024)
*1 amine or outer side, *2 acyl side, *3 side chain or, on linkers, in order; H or OH if unused. Where a SMILES comes first, the peptide text is derived from it. Bridges are numbered along the chain shown (N, C = ends). [ ]: non-standard residue; d: D form. Oic = O=C(O)[C@@H]1C[C@@H]2CCCC[C@@H]2N1; Adipoyl = O=C(CCCCC(=O)[*:2])[*:1]; tBuAla = CC(C)(C)C[C@H](N)C(=O)O; Pen = CC(C)(S)[C@H](N)C(=O)O; Dap = NC[C@H](N)C(=O)O; Ahx = NCCCCCC(=O)O; Sar = CNCC(=O)O

Legend:
human MASP2 = human MASP2 (Homo sapiens (Human), UniProt O00187); experiment: Biochemical human MASP2 assay (FRET substrate); settings: Average IC50; recombinant human MASP2; read-out: human MASP2 IC50
human MASP2, sequence (O00187 other isoform, or with tags, fused parts or gaps): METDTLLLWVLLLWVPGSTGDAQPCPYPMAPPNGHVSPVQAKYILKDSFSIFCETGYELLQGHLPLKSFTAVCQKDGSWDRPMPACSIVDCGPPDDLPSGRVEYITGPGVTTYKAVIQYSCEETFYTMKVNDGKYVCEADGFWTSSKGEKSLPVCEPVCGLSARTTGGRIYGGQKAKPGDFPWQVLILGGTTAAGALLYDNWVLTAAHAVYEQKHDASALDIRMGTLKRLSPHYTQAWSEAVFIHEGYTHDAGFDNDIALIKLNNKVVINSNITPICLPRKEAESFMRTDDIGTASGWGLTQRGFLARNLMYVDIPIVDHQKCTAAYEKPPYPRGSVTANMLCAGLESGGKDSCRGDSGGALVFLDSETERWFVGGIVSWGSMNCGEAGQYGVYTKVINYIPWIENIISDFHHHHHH
How it was run: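 IC50 came from % inhibition across compound concentrations, with fluorescence (ex 340 nm, em 490 nm) read after 60-120 min at 32 C. Substrate was a DABCYL FRET peptide, added as a 60 μM solution, cleaved by HEK293-expressed, Ni-NTA-purified mature recombinant human MASP2.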

rat MASP1 = rat MASP1 (Rattus norvegicus (Rat), UniProt Q8CHN8); experiment: Biochemical rat MASP1 assay (FRET substrate); settings: Average IC50; recombinant rat MASP1; read-out: rat MASP1 IC50
rat MASP1, sequence (Q8CHN8 other isoform, or with tags, fused parts or gaps): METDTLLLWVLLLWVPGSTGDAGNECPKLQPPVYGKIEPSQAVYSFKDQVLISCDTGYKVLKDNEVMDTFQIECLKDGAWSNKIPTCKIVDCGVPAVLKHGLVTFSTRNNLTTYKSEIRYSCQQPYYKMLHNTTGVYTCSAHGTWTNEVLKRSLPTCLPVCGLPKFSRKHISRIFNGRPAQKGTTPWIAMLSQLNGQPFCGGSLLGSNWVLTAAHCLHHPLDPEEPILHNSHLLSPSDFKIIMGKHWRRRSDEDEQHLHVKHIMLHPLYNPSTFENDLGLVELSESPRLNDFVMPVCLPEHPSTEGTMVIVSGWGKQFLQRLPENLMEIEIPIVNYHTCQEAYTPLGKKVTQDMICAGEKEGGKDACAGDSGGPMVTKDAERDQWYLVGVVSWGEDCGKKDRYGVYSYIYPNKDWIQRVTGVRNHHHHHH
From the text: A truncated cDNA sequence of rat MASP1encoding the fragment corresponding to the amino acids 302-704 with a C-terminal His Tag and N-terminal Ig-kappa secretion signal (SEQ ID No: 4) was subcloned into the mammalian expression vector pcDNA3.1 (Invitrogen).
(§1) The MASP1 or MASP2 expression vectors were transfected into the HEK293 (ATCC No. CRL-1573) cell line using Lipofectamine LTX® Reagent (Thermo-Fischer), as described by the manufacturer. The mature form of the recombinant rat MASP1 and MASP2 proteases were secreted into the culture medium. The MASP1 and MASP2 proteins were purified from the conditioned media by affinity chromatography on Ni-NTA Superflow resin (Qiagen) as described by the manufacturer.
4.2 Biochemical Rat MASP1 Assay.
Recombinant rat MASP1 enzyme produced in the HEK 293 cells was diluted in the reaction buffer (50 mM HEPES pH 8,0; 100 mM NaCl; 0,01% CHAPS; 0.5 mM Gluthathione) to the concentration of 4 nM and 25 μl was transferred into each single well of 384-well white microtiter plate (Greiner Bio One 781075). 1 μl of the inhibitor compound solution (dissolved in DMSO, at the corresponding concentration) or pure DMSO as a control was added to the same wells. The enzymatic reaction was initiated by addition of 25 μl of 40 μM solution of the FRET substrate Dabcyl-[…]-Glu(Edans)-NH2; (Dabcyl-4-((4-(dimethylamino)phenyl)azo)benzoic acid; Edans-5-[(2-Aminoethyl) amino]naphthalene-1-sulfonyl; custom synthesis by Jerini Peptide Technologies, Berlin) in the reaction buffer. The microtiter plate was incubated for 60-120 min at the temperature of 32 C. The increase of fluorescence intensity was measured in appropriate fluorescence plate reader (e.g. TECAN Ultra) using excitation wavelength of 340 nm and emission wavelength of 490 nm. IC50 values were calculated from percentage of inhibition of rat […] activity as a function of test compound concentration.

human MASP1 = human MASP1 (Homo sapiens (Human), UniProt P48740); experiment: Biochemical human MASP1 assay (FRET substrate); settings: Average IC50; recombinant human MASP1; read-out: human MASP1 IC50
human MASP1, sequence (P48740 other isoform, or with tags, fused parts or gaps): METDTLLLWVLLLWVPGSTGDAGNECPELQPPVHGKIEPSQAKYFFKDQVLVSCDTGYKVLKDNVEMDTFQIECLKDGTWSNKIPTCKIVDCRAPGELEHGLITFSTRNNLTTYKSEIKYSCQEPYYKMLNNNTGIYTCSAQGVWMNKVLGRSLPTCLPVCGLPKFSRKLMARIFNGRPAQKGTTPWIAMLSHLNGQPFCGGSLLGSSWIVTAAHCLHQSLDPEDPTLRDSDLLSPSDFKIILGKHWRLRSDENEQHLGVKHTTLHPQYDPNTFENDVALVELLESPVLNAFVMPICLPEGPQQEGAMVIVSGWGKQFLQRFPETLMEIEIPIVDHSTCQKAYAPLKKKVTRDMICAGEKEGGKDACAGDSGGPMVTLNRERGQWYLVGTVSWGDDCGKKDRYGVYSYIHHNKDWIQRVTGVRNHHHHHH
How it was run: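 IC50 derived from % inhibition versus compound concentration, with fluorescence increase read at 320/420 nm after 60-120 min at 32 C. Enzyme: HEK293-secreted, His-tagged human MASP1 fragment 297-699 at 20 nM in HEPES pH 8,0 buffer with NaCl, CHAPS, glutathione; substrate ABZ-peptide-Lys(Dnp)-NH2 added as 20 μM solution.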

rat MASP2 = rat MASP2 (Rattus norvegicus (Rat), UniProt Q9JJS8); experiment: Biochemical rat MASP2 assay (FRET substrate); settings: Average IC50; recombinant rat MASP2; read-out: rat MASP2 IC50
rat MASP2, sequence (Q9JJS8 other isoform, or with tags, fused parts or gaps): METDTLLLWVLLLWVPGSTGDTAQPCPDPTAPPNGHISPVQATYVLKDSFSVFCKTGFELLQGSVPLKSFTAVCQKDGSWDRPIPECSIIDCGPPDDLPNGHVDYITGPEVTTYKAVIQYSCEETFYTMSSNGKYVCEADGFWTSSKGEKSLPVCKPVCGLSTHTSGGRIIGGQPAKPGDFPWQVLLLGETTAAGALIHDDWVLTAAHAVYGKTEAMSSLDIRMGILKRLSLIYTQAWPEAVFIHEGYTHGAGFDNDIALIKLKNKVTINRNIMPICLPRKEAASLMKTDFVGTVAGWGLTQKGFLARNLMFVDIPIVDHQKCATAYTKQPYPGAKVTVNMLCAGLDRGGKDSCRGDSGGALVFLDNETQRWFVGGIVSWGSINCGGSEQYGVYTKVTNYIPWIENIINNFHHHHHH
From the text: as §1, with “The mature form of the recombinant rat MASP1 and MASP2 proteases were secreted into the culture medium.” left out, “M[…]” for “MASP2 proteins”

[1] = system: Human C3-DEPOSITION SERUM; experiment: C3 deposition assay, human serum on mannan-coated plates; type: biochemical; settings: Average IC50, read-out: Human C3-DEPOSITION SERUM IC50
How it was run: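 Plates coated overnight at 4° C with S. cerevisiae mannan (10 μg/mL, pH 9.6), blocked with 1% BSA in TBS 2 h at 37° C; washes in TBS/0.05% Tween 20/5 mM CaCl2. Antibodies diluted in wash buffer with 0.5% BSA. Colorimetric read-out at 450 nm.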

| SMILES | IC50 (human MASP2) | IC50 (rat MASP1) | IC50 (human MASP1) | IC50 (rat MASP2) | IC50 [1] |
| --- | --- | --- | --- | --- | --- |
| CC[C@H](C)[C@@H]1NC(=O)[C@H](C)NC(=O)CCCCCNC(=O)[C@@H]2CCCN2C(=O)[C@H]([C@@H](C)CC)NC(=O)[C@H]2NC(=O)[C@H]([C@@H](C)CC)NC(=O)[C@@H]3CCCN3C(=O)[C@@H]3CCCN3C(=O)[C@H](CC(C)(C)C)NC(=O)[C@H](CO)NC(=O)[C@H](CCCNC(=N)N)NC(=O)[C@H](CO)NC(=O)[C@H](CSSC2(C)C)NC1=O [Example 53, N-{3-[(6S,9S,12S,15S,18R,21S,24S,33aS,39S,42R,45S,47aS,52aS)-21,39,45-tri[(2S)-butan-2-yl]-6-(2,2-dimethylpropyl)-9,15-bis(hydroxymethyl)-24,53,53-trimethyl-5,8,11,14,17,20,23,26,33,38,41,44,47,52-tetradecaoxopentacontahydro-1H,5H-18,42-(methanodithiomethano)tripyrrolo[2,1-c:2′,1′-o:2″,1″-r][1,4,7,10,13,16,19,22,25,28,31,34,37,40]tetradecaazacyclohexatetracontin-12-yl]propyl}guanidine] (cyclo(AICSRS[tBuAla]PPI[Pen]IP[Ahx]); disulfide 3-11) | 83.5 nM | 96 nM | 6.75 nM | 19 nM | 44.5 nM |
| CC[C@H](C)[C@@H]1NC(=O)CN(C)C(=O)CCCCCNC(=O)[C@@H]2CCCN2C(=O)[C@H]([C@@H](C)CC)NC(=O)[C@H]2NC(=O)[C@H]([C@@H](C)CC)NC(=O)[C@@H]3CCCN3C(=O)[C@@H]3CCCN3C(=O)[C@H](CC(C)(C)C)NC(=O)[C@H](CO)NC(=O)[C@H](CCCNC(=N)N)NC(=O)[C@H](CO)NC(=O)[C@H](CSSC2(C)C)NC1=O [Example 54, N-{3-[(6S,9S,12S,15S,18R,21S,33aS,39S,42R,45S,47aS,52aS)-21,39,45-tri[(2S)-butan-2-yl]-6-(2,2-dimethylpropyl)-9,15-bis(hydroxymethyl)-25,53,53-trimethyl-5,8,11,14,17,20,23,26,33,38,41,44,47,52-tetradecaoxopentacontahydro-1H,5H-18,42-(methanodithiomethano)tripyrrolo[2,1-c:2′,1′-o:2″,1″-r][1,4,7,10,13,16,19,22,25,28,31,34,37,40]tetradecaazacyclohexatetracontin-12-yl]propyl}guanidine] | 33 nM | 180 nM | 8.5 nM | 18 nM | 39.6 nM |
| CC[C@H](C)[C@@H]1NC(=O)[C@@H]2CCCN2C(=O)[C@@H]2CCCN2C(=O)[C@H](CC(C)(C)C)NC(=O)[C@H](CO)NC(=O)[C@H](CCCNC(=N)N)NC(=O)[C@H](CO)NC(=O)[C@@H]2CSSC(C)(C)[C@H](NC1=O)C(=O)N[C@@H]([C@@H](C)CC)C(=O)N1CCC[C@H]1C(=O)N1CCC[C@H]1C(=O)N[C@@H]([C@@H](C)CC)C(=O)N2 [Example 58, N-{3-[(6S,9S,12S,15S,18R,21S,23aS,28aS,34S,37R,40S,42aS,47aS)-21,34,40-tri[(2S)-butan-2-yl]-6-(2,2-dimethylpropyl)-9,15-bis(hydroxymethyl)-48,48-dimethyl-5,8,11,14,17,20,23,28,33,36,39,42,47-tridecaoxotetratetracontahydro-1H,5H,28H-18,37-(methanodithiomethano)tetrapyrrolo[1,2-a:1′,2′-d:1″,2″-p:1′″,2′″-s][1,4,7,10,13,16,19,22,25,28,31,34,37]tridecaazacyclononatriacontin-12-yl]propyl}guanidine] (cyclo(CSRS[tBuAla]PPI[Pen]IPPI); disulfide 1-9) | 650 nM | 110 nM | 9 nM | 46 nM | 81.7 nM |
| CC[C@H](C)[C@@H]1NC(=O)CCCCC(=O)NC[C@@H](C(N)=O)NC(=O)[C@H](CC(=O)O)NC(=O)[C@@H]2CCCN2C(=O)[C@H]([C@@H](C)CC)NC(=O)[C@H]2NC(=O)[C@H]([C@@H](C)CC)NC(=O)[C@@H]3CCCN3C(=O)[C@@H]3CCCN3C(=O)[C@H](CC(C)(C)C)NC(=O)[C@H](CO)NC(=O)[C@H](CCCNC(=N)N)NC(=O)[C@H](CO)NC(=O)[C@H](CSSC2(C)C)NC1=O [Example 60] (ICSRS[tBuAla]PPI[Pen]IPD[Dap]-NH2; disulfide 2-10; linker N-14 via Adipoyl) | 5.4 nM | 330 nM | 58 nM | 13 nM | 20.5 nM |
| CC[C@H](C)[C@@H]1NC(=O)CN(C)C(=O)CCCCCNC(=O)[C@H]([C@@H](C)CC)NC(=O)[C@H]2NC(=O)[C@H]([C@@H](C)CC)NC(=O)[C@@H]3CCCN3C(=O)[C@@H]3CCCN3C(=O)[C@H](CC(C)(C)C)NC(=O)[C@H](CO)NC(=O)[C@H](CCCNC(=N)N)NC(=O)[C@H](CO)NC(=O)[C@H](CSSC2(C)C)NC1=O [Example 64, N-{3-[(5aS,11S,14S,17S,20S,23R,26S,39S,42R,45S,47aS)-26,39,45-tri[(2S)-butan-2-yl]-11-(2,2-dimethylpropyl)-14,20-bis(hydroxymethyl)-30,48,48-trimethyl-5,10,13,16,19,22,25,28,31,38,41,44,47-tridecaoxohexatetracontahydro-5H-23,42-(methanodithiomethano)dipyrrolo[2,1-1:2′,1′-o][1,4,7,10,13,16,19,22,25,28,31,34,37]tridecaazacyclotritetracontin-17-yl]propyl}guanidine] (cyclo([Ahx][Sar]ICSRS[tBuAla]PPI[Pen]I); disulfide 4-12) | 12 nM | 157 nM | 9.4 nM | 13 nM | 17.8 nM |

Now from value to compound:

| IC50 (human MASP2) | IC50 (rat MASP1) | IC50 (human MASP1) | IC50 (rat MASP2) | IC50 [1] | SMILES |
| --- | --- | --- | --- | --- | --- |
| 91 nM | 290 nM | 5.7 nM | 64 nM | 18.5 nM | CC[C@H](C)[C@@H]1NC(=O)[C@H](CN)NC(=O)[C@H](CN)NC(=O)[C@@H]2CCCN2C(=O)[C@H]([C@@H](C)CC)NC(=O)[C@H]2NC(=O)[C@H]([C@@H](C)CC)NC(=O)[C@@H]3C[C@@H]4CCCC[C@@H]4N3C(=O)[C@@H]3CCCN3C(=O)[C@H](CC(C)C)NC(=O)[C@H](CO)NC(=O)[C@H](CCCNC(=N)N)NC(=O)[C@H](CO)NC(=O)[C@H](CSSC2(C)C)NC1=O [Example 89] |
| 45 nM | 410 nM | 35 nM | 68 nM | 274 nM | CC[C@H](C)[C@@H]1NC(=O)CNC(=O)[C@@H](N)CCC(=O)NC[C@@H](C(N)=O)NC(=O)[C@H](CC(=O)O)NC(=O)[C@@H]2CCCN2C(=O)[C@H]([C@@H](C)CC)NC(=O)[C@H]2NC(=O)[C@H]([C@@H](C)CC)NC(=O)[C@@H]3C[C@@H]4CCCC[C@@H]4N3C(=O)[C@@H]3CCCN3C(=O)[C@H](CC(C)C)NC(=O)[C@H](CO)NC(=O)[C@H](CCCNC(=N)N)NC(=O)[C@H](CO)NC(=O)[C@H](CSSC2(C)C)NC1=O [Example 93] (H-EGICSRSLP[Oic]I[Pen]IPD[Dap]-NH2; lactam 1-16; disulfide 4-12) |
